The NIST ThermoML archive (doi:10.1016/j.jct.2010.12.028)

Test: xn = mol fraction of the nth substance listed
Conditions: 101 kPa, Liquid; for speed of sound: Sing-around technique in a fixed-path interferometer; for mass density: Vibrating tube method

Cc1ccccn1 [2-methylpyridine] + Cc1ccccc1N
Conditions	mass density, 303.15 K [kg/m3]	mass density, 308.15 K [kg/m3]	speed of sound, 303.15 K [m/s]	speed of sound, 308.15 K [m/s]
x2 = 0.0588	940.204	935.521	–	1355.7
x2 = 0.1226	945.414	940.771	–	1372.3
x2 = 0.1427	946.996	942.357	–	1377.4
x2 = 0.1759	949.518	944.908	–	1385.8
x2 = 0.2258	953.161	948.573	–	1398.3
x2 = 0.2557	955.24	950.677	–	1405.6
x2 = 0.3113	958.931	954.409	–	1418.7
x2 = 0.3629	962.158	957.666	–	1430.8
x2 = 0.4213	965.568	961.112	–	1443.9
x2 = 0.4743	968.45	964.025	1475.7	1455.4
x2 = 0.5146	970.527	966.122	1484.4	1464
x2 = 0.5732	973.382	968.998	1496.8	1476.2
x2 = 0.6182	975.431	971.079	1505.9	1485.5
x2 = 0.6862	978.364	974.033	1519.4	1498.8
x2 = 0.7571	981.219	976.909	1532.9	1508
x2 = 0.8344	984.158	979.889	1547.4	1522.5
x2 = 0.8737	985.611	981.361	1554.6	1538.1
x2 = 0.9527	988.492	984.295	1569.1	1555.1
